Measured values: patent publication US9534008B2, “Small molecule compounds that control plant- and insect-pathogenic nematodes” (California Institute of Technology, priority 2011, dated 2017)
Entries after “also recorded” stand apart in the source; their conditions may differ.

How the values were obtained:
[1] = test system: several of the tested nematode species; assay: Retention assay, across species; assay type: in vivo; settings: 1 nM, 1 μM and 1 mM tested
Experimental: OP50 E. coli was grown on a standard 5 cm agar plate (made with standard Nematode Growth Medium). The bacterial lawn was 16 mm in diameter and was grown overnight at 20° C. before being used in trials. Two 4 mm spots (0.6 μL) were placed on opposite sides of the bacterial lawn (using a transparent template to guide spot placement), and several minutes elapsed for the liquid to settle in before placing nematodes down on the assay. Recording began immediately upon worm placement. 0.6 μL of the control was placed on one side of the lawn, and 0.6 μL of the experimental cue was placed on the other side of the lawn, changing the location of the cue throughout trials between left/right and top/bottom to avoid bias.
Nematodes were isolated by gender at the L4 stage the day before being used in trials as developed adults. Worms were evenly divided and placed at two points equidistant from the foci of the scoring region. Trials were recorded for 20 minutes, and frames were collected for analysis at 1 frame per second. Results were averaged from at least three different trials. For every nematode species in this study, a different total number of worms (using water in both scoring regions) was tested to determine the minimum number of worms necessary for consistent unbiased results over a 20 minute trial. The total number of worms used in the multiple species assays depended on that species' optimal parameters. 10 worms were used for P. redivivus males and females, 20 worms were used for C. elegans males and O. dolichuridae males, and 14 worms were used for S. glaseri males. The Automated Software was used to compare worm occupancy in each scoring region over time, and the Chemotaxis Index (Bargmann et al., Cell 74:515-27 (1993), which is hereby incorporated by reference in its entirety) was adapted to score preference or avoidance to each ascaroside.
A video camera attached to the microscope produced a digital video stream, which was then analyzed. The ratio of the time the average worm spent in each region of interest was calculated for every trial. For ease of implementation, all worms in a single experiment were assumed to be roughly the same size. Thus worm pixels were counted instead of whole worms, allowing fractions of a worm in the region of interest to be taken into account. It also eliminated the need for a shape-based worm identification algorithm, and allowed each frame to be analyzed independently. A band-pass filter was applied to each frame to eliminate the effect of uneven lighting and also accentuate the worms against the background. The worm was then identified after thresholding the filtered image. Throughout each experiment, the locations and sizes of the regions of interest were known. Through the filtering described above, it is known which pixels are occupied by worms and which ones are not. Thus, the ratio of worm-pixels to all pixels inside the region of interest can be calculated to produce the worm-occupancy ratio. This calculation was done for every frame, giving a plot output of worm-occupancy ratio vs. time for each region.

C. elegans [2] = settings: cited from earlier work
S. glaseri = assay: Ascaroside function (Table 12), S. glaseri; assay type: in vivo
Experimental: (§1) Various ascarosides and ascaroside blends were administered to various nematodes described below (Table 12). […] A very strong result of affecting nematode behavior is designated in the table as “strong.”

C. elegans males = assay: Attraction assay (long-range, point source); settings: in vivo
Experimental: 10 cm standard chemotaxis plates were prepared (Bargmann et al., Cell 74:515-27 (1993), which is hereby incorporated by reference in its entirety) and stored at 4° C. until the day before use. Standard 1 cm-diameter copper pipes were sectioned into 1 cm-tall segments to use for the holding chambers. The females/hermaphrodites were isolated overnight, washed 3 times in M9 buffer, and then allowed to wander on a plate pre-conditioned with 50 uL of 1000× streptomycin for 2 hours to kill any bacteria that might produce a false positive attractant. The nematodes were then washed 3 times, and the supernatant from the last wash was placed in a copper chamber, as the control, 1 cm from the border of the 10 cm plate. The nematodes were suspended in M9 within the copper chamber, 1 cm from the border opposite the control chamber. After 6 hours, they were subsequently removed and replaced with 3 μL of 1M sodium azide. 100 C. elegans adult males were isolated overnight, washed several times in ddH2O, and placed at the center of the agar plate. After several hours, males paralyzed within 2 cm of each region were scored. The Chemotaxis Index (Bargmann et al., Cell 74:515-27 (1993), which is hereby incorporated by reference in its entirety) was then used to score male chemotaxis to either point source.

C. elegans [3] = assay: Ascaroside function (Table 12), C. elegans; assay type: in vivo, Caenorhabditis elegans; design: key to Attract Females/Herm. / Promote Dauer Formation / Attract Males: A very strong result of affecting nematode behavior is designated in the table as “strong.”
Experimental: as §1

Panagrellus redivivus = assay: Ascaroside function (Table 12), Panagrellus redivivus; assay type: in vivo
Experimental: as §1

C. elegans [4] = settings: in vivo; cited from earlier work
S. feltiae = assay: Ascaroside function (Table 12), S. feltiae; assay type: in vivo, Steinernema feltiae
Experimental: as §1

[5] = test system: Meloidogyne javanica, M. floridensis, M. incognita, M. hapla; assay: Ascaroside function (Table 12), root-knot nematodes; assay type: in vivo, Meloidogyne spp.; settings: for Dispersal (of dauer larvae, infectious juveniles) / Repel Females/Herm.: Meloidogyne javanica, M. floridensis, M. incognita, M. hapla, entries marked *; for act as dispersants and repellants in Meloidogyne species: alone, in concert, and/or in concert with ascr#9 or other ascarosides
Experimental: as §1

[6] = test system: Heterorhabditis bacteriophora, H. zealandica, H. floridensis; assay: Ascaroside function (Table 12), Heterorhabditis; assay type: in vivo, Heterorhabditis spp.; settings: for Dispersal (of dauer larvae, infectious juveniles) / Repel Females/Herm.: Heterorhabditis bacteriophora, H. zealandica, H. floridensis, entries marked *; for act as dispersants and repellants in Heterorhabditis: alone, in concert, and/or in concert with ascr#9 or other ascarosides
Experimental: as §1

[7] = test system: C. elegans hermaphrodites; assay: Quadrant chemotaxis assay; assay type: in vivo; settings: FIGS. 48A-B (spot attraction and quadrant chemotaxis)
Experimental: Chemotaxis to both non-indole and indole ascarosides was assessed on 10 cm four-quadrant petri plates (Wicks et al., Dev. Biol. 221:295-307 (2000), which is hereby incorporated by reference in its entirety). Each quadrant was separated from adjacent ones by plastic spacers (FIG. 1B). Pairs of opposite quadrants were filled with nematode growth medium (NGM) agar containing either indole ascarosides or non-indole ascarosides at different concentrations. Animals were washed gently in a S-basal buffer, placed in the center of a four-quadrant plate with ascarosides in alternating quadrants, and scored after 15 minutes and 30 minutes. A chemotaxis index was calculated as: (the number of animals on ascaroside quadrants minus the number of animals on buffer quadrants)/(total number of animals).
Chemotaxis to hbas#3 was assessed on 10 cm four-quadrant petri plates (Wicks et al., Dev. Biol. 221:295-307 (2000), which is hereby incorporated by reference in its entirety). Each quadrant was separated from adjacent ones by plastic spacers. Pairs of opposite quadrants were filled with nematode growth medium (NGM) agar containing different concentrations of hbas#3. Animals were washed gently in an S-basal buffer and placed in the center of a four-quadrant plate with ascarosides in alternating quadrants, and scored after 15 minutes and 30 minutes. A chemotaxis index was calculated as: (the number of animals on ascaroside quadrants minus the number of animals on buffer quadrants)/(total number of animals).

[8] = test system: C. elegans hermaphrodites and males; assay: Spot attraction assay; assay type: in vivo
Experimental: The spot attraction assays were conducted according to a previously reported method (Pungaliya et al., PNAS 106:7708-13 (2009); Srinivasan et al., Nature 454:1115-18 (2008), which are hereby incorporated by reference in their entirety). For both C. elegans hermaphrodites and males, 50-60 worms were harvested daily at the fourth larval stage (L4) and stored segregatedly by sex at 20° C. overnight, to be used as young adults the following day. For the competition experiments, two conditions were used: 120 nM ascr#3 and 10 nM icas#3 (Condition 1), or 12 μM ascr#3 and 1 μM icas#3 (Condition 2) in water containing 10% ethanol. Aliquots were stored at −20° C. in 20 μL tubes. 10% ethanol in water was used as control.
Attraction assays with hbas#3 were conducted as previously reported (Srinivasan et al., Nature 454:1115-18 (2008); Pungaliya et al., Proc. Natl. Acad. Sci. U.S.A. 106:7708-13 (2009), which are hereby incorporated by reference in their entirety). For the attraction assays, 50-60 hermaphrodite worms were harvested daily at the early fourth larval stage (L4) and stored at 20° C. overnight to be used as young adults the following day. Hbas#3 was dissolved in water containing 10% ethanol. Aliquots were stored at −20° C. in 20 μL tubes. 10% ethanol in water was used as control.

## CC1O[C@@H](O[C@H](C)CCCC/C=C/C(=O)O)[C@@H](O)C[C@H]1O (stereo partly drawn) [ascr#3]
[1]
  preference for areas conditioned by ascaroside: preferred
C. elegans [2]; from 1 μM concentration
  most active amount for attraction in C. elegans: ~1 pmol
C. elegans [2]; in vivo
  hermaphrodite repulsion: repels hermaphrodites; also recorded: strongly deter
  male attraction: strongly attracts males
S. glaseri
  Attract Males: ascr#3
C. elegans males
  C. elegans male chemotaxis to a point source: chemotax towards
  amount eliciting C. elegans male attraction from a distance (as low as): ≤ 5 femtomol
C. elegans [3]
  Attract Males: ascr#3
  Promote Dauer Formation: ([strong])
  Repel Females/Herm.: ascr#3
Panagrellus redivivus
  Attract Males: ascr#3
C. elegans [4]
  dauer-inducing activity: promote dauer entry
S. feltiae
  Dispersal (of dauer larvae, infectious juveniles): ascr#3

## CC(=O)CC[C@@H](C)O[C@@H]1O[C@@H](C)[C@H](O)C[C@H]1O[C@@H]1O[C@H](CO)[C@@H](O)[C@H](O)[C@H]1O [ascr#4]
C. elegans [3]
  Promote Dauer Formation: ascr#4

## C[C@@H]1O[C@@H](OCCC(=O)O)[C@H](O)C[C@H]1O [ascr#5]
C. elegans [3]
  Promote Dauer Formation: ([strong])
  Repel Females/Herm.: ascr#5

## C[C@H](CC/C=C/C(=O)O)O[C@@H]1O[C@@H](C)[C@H](O)C[C@H]1O [ascr#7]
[1]
  preference for areas conditioned by ascaroside: preferred
S. glaseri
  Attract Males: ascr#7
C. elegans [3]
  Attract Males: ascr#7
Panagrellus redivivus
  Attract Males: ascr#7

## CC1O[C@@H](O[C@H](C)CCCCCCC(=O)O)C(O)C[C@H]1O (stereo partly drawn) [ascr#10]
[1]
  preference for areas conditioned by ascaroside: preferred
S. glaseri
  Attract Males: ascr#10
C. elegans [3]
  Attract Males: ascr#10
Panagrellus redivivus
  Attract Males: ascr#10
[5]
  Dispersal (of dauer larvae, infectious juveniles): ascr#10*
  Repel Females/Herm.: ascr#10*
  act as dispersants and repellants in Meloidogyne species: dispersants and repellants

## CC1OC(O[C@H](C)CCCCCCCC(=O)O)C(O)CC1O (stereo partly drawn) [ascr#16]
[5]
  Dispersal (of dauer larvae, infectious juveniles): ascr#16*
  Repel Females/Herm.: ascr#16*
  act as dispersants and repellants in Meloidogyne species: dispersants and repellants

## CC1OC(O[C@H](C)CCCCCCCCC(=O)O)C(O)CC1O (stereo partly drawn) [ascr#18]
[6]
  Dispersal (of dauer larvae, infectious juveniles): ascr#18*
  Repel Females/Herm.: ascr#18*
  act as dispersants and repellants in Heterorhabditis: dispersants and repellants
[5]
  Dispersal (of dauer larvae, infectious juveniles): ascr#18*
  Repel Females/Herm.: ascr#18*
  act as dispersants and repellants in Meloidogyne species: dispersants and repellants

## CC1OC(O[C@H](C)CCCCCCCCCC(=O)O)C(O)CC1O (stereo partly drawn) [ascr#20]
[5]
  Dispersal (of dauer larvae, infectious juveniles): ascr#20*
  Repel Females/Herm.: ascr#20*
  act as dispersants and repellants in Meloidogyne species: dispersants and repellants

## C[C@H](CCCCCCCCCCC(=O)O)O[C@@H]1O[C@@H](C)[C@H](O)C[C@H]1O [ascr#22]
[6]
  Dispersal (of dauer larvae, infectious juveniles): ascr#22*
  Repel Females/Herm.: ascr#22*
  act as dispersants and repellants in Heterorhabditis: dispersants and repellants
[5]
  Dispersal (of dauer larvae, infectious juveniles): ascr#22*
  Repel Females/Herm.: ascr#22*
  act as dispersants and repellants in Meloidogyne species: dispersants and repellants

## C[C@H](CCCC/C=C/C(=O)O)O[C@@H]1O[C@@H](C)[C@H](OC(=O)c2ccc(O)cc2)C[C@H]1O [hbas#3, (8R)-(3′R-Hydroxy-5′R-(4-hydroxybenzoyloxy)-6′S-methyl-(2H)-tetrahydropyran-2′-yloxy)non-(2E)-enoic acid]
C. elegans [3]
  Attract Females/Herm.: ([very
  Attract Males: ([strong])
[7]
  concentration at which C. elegans is strongly attracted (as low as): ≤ 10 femtomolar
[8]; dose dependent manner
  attraction of wild-type (N2) hermaphrodites: attracted

## C[C@H](CCCCC(=O)O)O[C@@H]1O[C@@H](C)[C@H](OC(=O)c2c[nH]c3ccccc23)C[C@H]1O [icas#1]
C. elegans [3]
  Attract Females/Herm.: ([strong])
  Attract Males: ([strong])
[8]; high concentrations, 1 μmol, N2 hermaphrodites and him-5 males
  attraction of both C. elegans sexes: attractive; also recorded: attracted

## C[C@@H]1O[C@@H](OCCCCC(=O)O)[C@H](O)C[C@H]1O [oscr#9, 5-(3′R,5′R-Dihydroxy-6′S-methyl-(2H)-tetrahydropyran-2′-yloxy)pentanoic acid]
Panagrellus redivivus
  Attract Males: oscr#9

## CC1O[C@@H](OCCCCCCCCC(=O)O)C(O)C[C@H]1O (stereo partly drawn) [oscr#10, 9-(3′R,5′R-Dihydroxy-6′S-methyl-(2H)-tetrahydropyran-2′-yloxy)nonanoic acid]
Panagrellus redivivus
  Repel Males: oscr#10
